These results are taken from patent publication US7956069B2, “Compounds” (AstraZeneca AB, priority 2006, dated 2011).

For orientation: EC50 means the concentration needed to bring the measured effect to its halfway point.

A value given as a limit tells only on which side of the number the result lay.

Holding throughout (assay type): cell-based
Assay [1] concerns the target T1, hM3 (human Muscarinic receptor subtype 3) (Homo sapiens, UniProt P20309).
T1 construct: expressed in transfected cells; host or cells: CHO cells (Chinese hamster ovary cells, ATCC)
Put plainly: Human M3 calcium mobilization FLIPR assay. To be noted: CHO cells expressing hM3, Ca2+ release. As for the experimental part:
(§1) Biological Evaluation Human M1, Rat M1, Human M3 and Human M5 Calcium Mobilization FLIPR™ Assay
(§2) The compound activity in the present invention (EC50 or IC50) was measured using a 384 plate-based imaging assay that monitors drug induced intracellular Ca^2+ release in whole cells. Activation of hM1 (human Muscarinic receptor subtype 1, gene bank access NM_000738), rM1 (rat Muscarinic receptor subtype 1, gene bank access NM_080773), hM3 (human Muscarinic receptor subtype 3, gene bank access NM_000740NM_000740) and hM5 (human Muscarinic receptor subtype 5, gene bank access NM_0121258), receptors expressed in CHO cells (Chinese hamster ovary cells, ATCC) was quantified in a Molecular Devices FLIPR II™ instrument as an increase in fluorescent signal. Inhibition of hM3 and hM5 by compounds was determined by the decrease in fluorescent signal in response to 20 nM carbachol activation.
(§3) CHO cells were plated in 384-black polylysine coated plate (Costar) at 8000 cells/well/50 μl for 24 hours or 4000 cells/well for 48 hours in a humidified incubator (5% CO2 and 37° C.) in DMEM/F12 medium without selection agent. Prior to the experiment the cell culture medium was removed from the plates by inversion. A loading solution of 30 μl of Hank's balanced salt solution, 10 mM Hepes and 2.5 mM Probenicid at Ph 7.4 (Cat no. 311-520-VL, Wisent) with 2 μM calcium indicator dye (FLUO-3AM, Molecular Probes F14202) was added to each well. Plates were incubated at 37° C. for 60 minutes prior to start the experiment. The incubation was terminated by washing the cells four times in assay buffer, leaving a residual 25 μl buffer per well. Cell plates were then transferred to the FLIPR, ready for compound additions.
(§4) The day of experiment, carbachol and compounds were diluted in three-fold concentration range (10 points serial dilution) for addition by FLIPR instrument. For all calcium assays, a baseline reading was taken for 30 seconds followed by the addition of 12.5 μl (25 μl for hM1 and rM1) of compounds, resulting in a total well volume of 37.5 μl (50 μl for hM1 and rM1). Data were collected every 1.6 seconds for 300 seconds. For hM3 and hM5 an additional 12.5 μl of carbachol (20 nM final) was added at 300 seconds. After this addition of carbachol (producing a final volume of 50 μl), the FLIPR continued to collect data every 2 seconds for 240 seconds. The fluorescence emission was read using filter 1 (emission 520-545 nm) by the FLIPR on board CCD camera.
(§5) Calcium mobilization output data were calculated as the maximal relative fluorescence unit (RFU) minus the minal value for both compound and agonist reading frame (except for hM1 and rM1 using only the maximal RFU). Data were analyzed using sigmoidal fits of a non-linear curve-fitting program (XLfit version 5.0.6 from ID Business Solutions Limited, Guildford, UK). All EC50 and IC50 values are reported as arithmetic means±standard error of mean of ‘n’ independent experiments.
(A change in cytosolic calcium serves as a functional read-out for many receptors and channels.)

The target in assay [2] is T2, hM1 (human Muscarinic receptor subtype 1) (Homo sapiens, UniProt P11229).
T2 construct: expressed in transfected cells; host or cells: CHO cells (Chinese hamster ovary cells, ATCC)
T2 sequence (P11229 1-460): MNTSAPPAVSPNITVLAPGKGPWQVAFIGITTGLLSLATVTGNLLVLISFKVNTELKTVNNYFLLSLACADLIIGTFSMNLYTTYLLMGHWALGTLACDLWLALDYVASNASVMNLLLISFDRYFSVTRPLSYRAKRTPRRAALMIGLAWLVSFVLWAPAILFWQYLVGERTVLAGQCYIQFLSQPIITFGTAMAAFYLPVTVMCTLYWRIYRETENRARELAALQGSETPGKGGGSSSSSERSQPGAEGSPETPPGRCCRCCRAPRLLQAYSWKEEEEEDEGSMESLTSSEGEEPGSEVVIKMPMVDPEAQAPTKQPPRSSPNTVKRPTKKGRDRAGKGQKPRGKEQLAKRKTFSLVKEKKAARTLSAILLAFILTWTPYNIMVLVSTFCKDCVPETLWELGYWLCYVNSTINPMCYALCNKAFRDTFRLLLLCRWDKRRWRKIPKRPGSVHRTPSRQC
The assay is described as follows: Human M1 calcium mobilization FLIPR assay. The following applies: CHO cells expressing hM1, Ca2+ release. As for the experimental part:
as §1, §2, §3, §4, §5

In assay [3] the target is T3, hM5 (human Muscarinic receptor subtype 5) (Homo sapiens, UniProt P08912).
T3 construct: expressed in transfected cells; host or cells: CHO cells (Chinese hamster ovary cells, ATCC)
T3 sequence (P08912 1-532): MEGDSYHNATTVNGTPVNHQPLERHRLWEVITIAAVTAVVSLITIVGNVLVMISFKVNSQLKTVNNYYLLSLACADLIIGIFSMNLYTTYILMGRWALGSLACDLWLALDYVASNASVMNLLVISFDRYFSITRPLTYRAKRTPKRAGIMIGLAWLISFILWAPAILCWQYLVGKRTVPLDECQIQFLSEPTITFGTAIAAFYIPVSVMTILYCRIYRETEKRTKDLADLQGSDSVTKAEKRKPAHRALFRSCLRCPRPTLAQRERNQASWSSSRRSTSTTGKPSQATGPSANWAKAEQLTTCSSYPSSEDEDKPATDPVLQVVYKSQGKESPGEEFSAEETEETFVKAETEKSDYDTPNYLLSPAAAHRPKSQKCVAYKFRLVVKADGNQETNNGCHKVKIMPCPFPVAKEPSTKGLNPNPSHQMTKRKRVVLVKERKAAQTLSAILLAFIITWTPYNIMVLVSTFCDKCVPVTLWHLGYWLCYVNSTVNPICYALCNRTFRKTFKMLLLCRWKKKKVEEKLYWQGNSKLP
Put plainly: Human M5 calcium mobilization FLIPR assay. The following applies: CHO cells expressing hM5, Ca2+ release. The protocol: as §1, §2, §3, §4, §5

T1 sequence (P20309 whole entry): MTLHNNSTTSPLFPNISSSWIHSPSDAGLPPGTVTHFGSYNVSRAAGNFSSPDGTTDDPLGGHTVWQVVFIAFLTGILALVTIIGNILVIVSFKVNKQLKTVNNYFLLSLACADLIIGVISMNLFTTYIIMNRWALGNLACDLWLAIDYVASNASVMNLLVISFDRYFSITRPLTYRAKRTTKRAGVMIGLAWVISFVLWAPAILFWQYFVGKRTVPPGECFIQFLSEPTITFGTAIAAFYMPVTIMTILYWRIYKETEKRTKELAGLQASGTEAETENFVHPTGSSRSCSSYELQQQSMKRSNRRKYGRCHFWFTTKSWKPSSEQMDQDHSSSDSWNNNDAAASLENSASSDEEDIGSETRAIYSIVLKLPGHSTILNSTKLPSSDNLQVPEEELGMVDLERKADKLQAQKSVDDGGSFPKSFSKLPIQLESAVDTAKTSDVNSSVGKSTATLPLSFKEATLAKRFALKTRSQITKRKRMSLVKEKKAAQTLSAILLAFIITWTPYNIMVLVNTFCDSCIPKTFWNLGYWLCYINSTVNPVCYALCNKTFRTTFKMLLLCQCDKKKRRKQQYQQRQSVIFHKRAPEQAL

Take `CCOC(=O)N1CCC(N2CCC(N3C(=O)N(C(C)C)[C@H]4CCCC[C@@H]43)CC2)CC1`: the EC50 in assay [1] is > 40000 nM; in assay [2], 1200 nM; in assay [3] it was > 40000 nM. As to `CCNC(=O)N1CCC(N2CCC(N3C(=O)N[C@@H]4CCCC[C@H]43)CC2)C1` (mixture of isomers), in assay [2], the EC50 was found to be 1000 nM. As for `O=C(C1CCCC1)N1CCC(N2CCC(N3C(=O)N[C@@H]4CCCC[C@@H]43)CC2)CC1`, in assay [2], the concentration giving a half-maximal response (EC50) stood at 300 nM. Same read-out and setting: the result for `CCOC(=O)N1CCC(N2CCC(N3C(=O)C[C@H]4CCCC[C@@H]43)CC2)C1` (single isomer, unassigned) reads 59 nM. Still for that read-out and setting: for `O=C(C1CC1(F)F)N1CCC(N2CCC(N3C(=O)N[C@H]4CCCC[C@@H]43)CC2)CC1` (some centres unmarked) the value was 81 nM. In the case of `Cc1ccccc1C(=O)N1CCC(N2CCC(N3C(=O)C[C@H]4CCCC[C@@H]43)CC2)CC1`, the EC50 in assay [1] was > 40000 nM; in assay [2], 93 nM; in assay [3] it was > 40000 nM. Take `O=C(c1ccccc1)N1CCC(N2CCC(N3C(=O)N[C@@H]4CCCC[C@H]43)CC2)CC1`: the concentration giving a half-maximal response (EC50) in assay [2] amounted to 600 nM.
